Article PMC11858653, “Design, Synthesis and Bioactive Evaluation of Topo I/c-MYC Dual Inhibitors to Inhibit Oral Cancer via Regulating the PI3K/AKT/NF-κB Signaling Pathway” (Molecules, 2025)
Values joined by “and” are separate entries in the source; they are usually repeats but may differ in a detail not shown here. Identical values can stand only once.

Key:
[1] = tested on: LC3, p62, Beclin-1 in Cal27 cells; assay: Western blot of autophagy-related markers; type: cell-based, human
Method: In addition, in order to further clarify the potential mechanism of autophagy induced by compound 7be, Western blot analysis was used to detect the expression of autophagy-related markers, including microtubule-associated protein 1 light chain protein-3 protein (LC3), p62 and Beclin-1. In the process of autophagy, LC3 is essential for the maturation of the autophagosome and its fusion with the lysosome.
(§1) After Cal27 cells had been treated with the desired concentration of each drug for 24 h, the cells were collected and the total protein was extracted. The cells were then separated on a gel of appropriate concentration and transferred to a PVDF membrane. After blocking with milk, the membrane was incubated with primary antibody at 4 °C overnight. Subsequently, the membrane was incubated with horseradish peroxidase-coupled secondary antibody for 2 h. Finally, the protein bands were used to detect the immunoreactive signal using an enhanced chemiluminescence kit.

Cal27 cells [2] = assay: Wound healing assay; type: cell-based, human; settings: 1-4 μM, 24 h
Method: Cal27 cells in the logarithmic growth phase were inoculated into 6-well plates and cultured until the cells fused into a monolayer. A linear wound was then formed by scratching vertically with a 200 μL sterilized gun tip. The cells were washed 3 times with PBS to remove scraped off cells, and each well was incubated by adding medium. The initial scratched area was recorded with a microscope. Then different concentrations of the compounds to be tested were added, and the area of the scratches was recorded by microscopy 24 h later.

[3] = tested on: human oral cancer Cal27 xenograft tumor; assay: In vivo antitumor activity, Cal27 xenograft; design: species or system BALB/c nude mice; settings: for relative tumor proliferation rate / tumor suppression rate / tumor growth inhibition (TGI): 21 days
Method: Nude mouse organ and tumor tissues fixed with neutral formalin solution were paraffin-embedded according to the conventional processing method. Sections were cut to a thickness of approximately 5 μm, placed on glass slides and dewaxed in an oven at 60 °C, stained for H&E and immunohistochemistry and finally visualized with the Cytation 5 imaging system.
For this assay, 130 SPF-grade BALB/c mice (female, 4–6 weeks old, 18–20 g) were obtained from Chang Zhou Cavens Laboratory Animal Ltd. (Changzhou, China). The in vivo activity experiments were commissioned by Nanjing OG Pharmaceuticals, Co., Ltd. (Nanjing, China) All mice were housed in plastic cages, fed, and watered under standard conditions and air filtration (22 ± 2 °C; 12 h light/dark cycles). Under aseptic conditions, human oral cancer Cal27 cells were inoculated subcutaneously in the right axilla of BALB/c nude mice. When the tumors had grown to about 85 mm^3, 24 […] mice with good growth status and good homogeneity of tumor size were selected and randomly divided into the following four groups of six mice each: (1) the model group; (2) the low-dose group; (3) the high-dose group; and (4) the positive drug group. The drug dose in the low-dose group was 10 mg/kg, which was injected intraperitoneally once every other day, for the duration of 21 days of administration; the drug dose in the high-dose group was 20 mg/kg, which was injected intraperitoneally once every other day, for the duration of 21 days of administration; and the drug dose in the cisplatin group was 2 mg/kg, which was injected intraperitoneally once every other day, for the duration of 21 days of administration. Normal tissues of the heart, liver, spleen, lung and kidney and half of the tumor tissues were fixed with 4% formalin solution and embedded in paraffin for histological analysis; the other half of the tumor tissues were preserved in liquid nitrogen, and the supernatant was extracted after milling the tissues and detected by Western blot.

c-MYC protein = assay: Western blot of c-MYC protein in Cal27 cells; type: cell-based, human; settings: Cal27, 24 h
Method: as §1

Cal27 cells [4] = assay: Annexin V-FITC/PI apoptosis assay; type: cell-based, human; settings: Cal27, 24 h, increased from 5.88%; treated with 1, 2, 3 and 4 μM
Method: Cal27 cells were treated with compound 7be for 24 h. Tumor cells were then digested and collected. The resulting cells were incubated with Annexin V/PI light-avoidance staining for 0.5 h. Finally, different stages of apoptosis populations of Cal27 cells were immediately analyzed by flow cytometry.

c-MYC = assay: RT-qPCR of c-MYC transcription in Cal27 cells; type: cell-based, human; settings: Cal27, 24 h
Method: Cal27 cells were plated in a 6-well plate and incubated for 12 h at 37 °C in a humidified atmosphere with 5% CO2, then compound 7be was added at final concentrations of 1 μM, 2 μM, 3 μM and 4 μM. After incubation for 24 h, cells were harvested, and the RNA was extracted according to the manufacturer’s instructions. Total RNA was used as a template for reverse transcription. The cDNA was obtained and applied directly for further qPCR. According to the manufacturer’s protocol, the real-time PCR was performed on a real-time PCR apparatus. The total volume of 20 μL of quantitative reaction mixtures contained 10 μL of SYBR Green qPCR Mix, 0.4 μL PCR Forward Primer (10 μM), 0.4 μL PCR Reverse Primer (10 μM) and 2 μL of cDNA (Table S4). The c-MYC mRNA levels were normalized to the GAPDH mRNA level of each sample. Results of real-time PCR were analyzed using the 2^−ΔCt method.

ACHN = assay: MTT antiproliferative assay, ACHN; type: cell-based, human; settings: Homo sapiens, ACHN, 48 h, mean ± SD
Cal27 cells [5] = assay: Colony formation assay; type: cell-based, human; settings: Cal27, tested 0.5, 1, 1.5 μM
Method: The colony formation assay was used to evaluate the antiproliferative effect of compound 7be on Cal27 cells. Cal27 cells were grown in 6-well plates at a density of 700 cells per well and then treated with different concentrations of compound 7be for 48 h. The treatment medium was removed and fresh medium was added. After 2 weeks of culture, cells were fixed with 4% paraformaldehyde for 8 min and stained with crystal violet solution (10%). Finally, they were imaged with a camera.

[6] = 10 mg/kg i.p. once every other day
[7] = 20 mg/kg i.p. once every other day

Structure (SMILES): Cc1cc(C)c2c(n1)S(=O)(=O)c1c-2nc(NCCN2CCCCC2)c2ccccc12 [7be, 7,9-Dimethyl-5-((2-(piperidin-1-yl)ethyl)amino) pyrido[3′,2′:4,5]thieno[3,2-c]isoquinoline 11,11-dioxide]
- expression of autophagy biomarkers Beclin-1 and LC3-II [1]: upregulated
- expression of p62 [1]: decreased
- migration of Cal27 cells (in words) (Cal27 cells [2]): effectively inhibit migration
- relative tumor proliferation rate [3, 6]: 52.0%
- tumor suppression rate / tumor growth inhibition (TGI) [3, 6]: 48.53% and 48.5%
- relative tumor proliferation rate [3, 7]: 34.1%
- tumor suppression rate / tumor growth inhibition (TGI) [3, 7]: 64.7% and 64.73%
- expressions of p62, COX-2 and Bcl-2 in tumor tissue ([3]; 20 mg/kg, Western blot of tumor tissue): decreased
- percentage of Ki67-positive cells in tumor tissue ([3]; Ki67 immunostaining): decreased
- concentration needed to significantly downregulate the level of c-MYC protein (c-MYC protein): 2 µM
- number of apoptotic cells (early and late apoptotic cells) (Cal27 cells [4]): 32.8%
- concentration needed to significantly inhibit the transcription of c-MYC (c-MYC): 8 µM
- IC50 (ACHN): 3.25 ± 1.59 µM
- concentration completely suppressing colony formation ability (Cal27 cells [5]): 1.5 µM
